Columns and labels:
[1] = system: mouse; assay: mouse i.v. LD50 (acute toxicity); assay type: in vivo; conditions: 0.5M solution, confidence limit of 14.3-18.4 mmol/kg
[2] = relaxivity rates (Bruker NMR MiniSpec, 20 MHz, 40° C.); assay type: physicochemical
[3] = sterile water for injection (SWFI)

Structure (SMILES): O=C([O-])CN(CCN(CC(=O)[O-])CC(=O)NCC1CCCO1)CCN(CC(=O)[O-])CC(=O)NCC1CCCO1.[Gd+3] (centres unmarked) [Example 2]
- LD50 value [1]: 16.2 mmol/kg
- relaxivity rate T1 ([2]; 4% human serum albumin (HSA)): 4.8 mmol⁻¹ s⁻¹
- relaxivity rate T2 ([2]; 4% human serum albumin (HSA)): 4.8 mmol⁻¹ s⁻¹
- relaxivity rate T1 [2, 3]: 4.4 mmol⁻¹ s⁻¹
- relaxivity rate T2 [2, 3]: 5.6 mmol⁻¹ s⁻¹

From patent US5077037A, “Novel compositions for magnetic resonance imaging” (Mallinckrodt Medical, Inc., priority 1990, dated 1991)
